Results taken from patent publication US20020147217A1, “The treatment of sexual dysfunction with enantiomers” (R.T. Alamo Ventures I, L.L.C., priority 2001, published 2002).
Where a name gives a salt, the structure may show the parent alone. Read-outs that look alike come from different tables or passages of the source.

Tests used:
[1] = biological target: T1, PDE6 partially purified from bovine retinal rod (Bos taurus, UniProt P11541+P23439); test: PDE6 inhibition assay, Viagra versus racemic flosequinan (Example 1); assay type: biochemical
T1 construct: from tissue; host or cells: bovine retinal rod
T1 sequence (P11541 2-856 limits assumed): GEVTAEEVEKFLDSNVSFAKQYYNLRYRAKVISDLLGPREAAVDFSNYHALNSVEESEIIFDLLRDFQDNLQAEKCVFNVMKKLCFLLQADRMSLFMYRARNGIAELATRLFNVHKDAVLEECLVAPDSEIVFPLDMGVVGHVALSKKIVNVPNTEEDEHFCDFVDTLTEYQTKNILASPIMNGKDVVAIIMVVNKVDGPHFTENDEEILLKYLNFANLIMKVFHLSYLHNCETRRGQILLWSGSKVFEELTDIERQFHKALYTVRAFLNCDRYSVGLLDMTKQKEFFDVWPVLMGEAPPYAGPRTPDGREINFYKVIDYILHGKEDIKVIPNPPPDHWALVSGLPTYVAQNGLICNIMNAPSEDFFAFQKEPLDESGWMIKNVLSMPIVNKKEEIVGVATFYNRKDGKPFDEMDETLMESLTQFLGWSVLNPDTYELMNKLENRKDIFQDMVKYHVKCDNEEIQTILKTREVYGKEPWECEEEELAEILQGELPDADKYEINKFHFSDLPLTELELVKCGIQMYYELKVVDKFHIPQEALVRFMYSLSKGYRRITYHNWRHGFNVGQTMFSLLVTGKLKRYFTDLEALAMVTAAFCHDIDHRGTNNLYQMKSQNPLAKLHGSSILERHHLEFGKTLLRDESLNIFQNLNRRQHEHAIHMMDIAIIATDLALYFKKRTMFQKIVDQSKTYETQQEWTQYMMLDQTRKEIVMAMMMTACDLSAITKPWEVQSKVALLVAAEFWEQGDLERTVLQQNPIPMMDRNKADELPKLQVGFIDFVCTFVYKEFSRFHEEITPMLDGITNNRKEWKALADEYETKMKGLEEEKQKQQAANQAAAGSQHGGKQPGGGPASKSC
T1 sequence (P23439 2-850 limits assumed): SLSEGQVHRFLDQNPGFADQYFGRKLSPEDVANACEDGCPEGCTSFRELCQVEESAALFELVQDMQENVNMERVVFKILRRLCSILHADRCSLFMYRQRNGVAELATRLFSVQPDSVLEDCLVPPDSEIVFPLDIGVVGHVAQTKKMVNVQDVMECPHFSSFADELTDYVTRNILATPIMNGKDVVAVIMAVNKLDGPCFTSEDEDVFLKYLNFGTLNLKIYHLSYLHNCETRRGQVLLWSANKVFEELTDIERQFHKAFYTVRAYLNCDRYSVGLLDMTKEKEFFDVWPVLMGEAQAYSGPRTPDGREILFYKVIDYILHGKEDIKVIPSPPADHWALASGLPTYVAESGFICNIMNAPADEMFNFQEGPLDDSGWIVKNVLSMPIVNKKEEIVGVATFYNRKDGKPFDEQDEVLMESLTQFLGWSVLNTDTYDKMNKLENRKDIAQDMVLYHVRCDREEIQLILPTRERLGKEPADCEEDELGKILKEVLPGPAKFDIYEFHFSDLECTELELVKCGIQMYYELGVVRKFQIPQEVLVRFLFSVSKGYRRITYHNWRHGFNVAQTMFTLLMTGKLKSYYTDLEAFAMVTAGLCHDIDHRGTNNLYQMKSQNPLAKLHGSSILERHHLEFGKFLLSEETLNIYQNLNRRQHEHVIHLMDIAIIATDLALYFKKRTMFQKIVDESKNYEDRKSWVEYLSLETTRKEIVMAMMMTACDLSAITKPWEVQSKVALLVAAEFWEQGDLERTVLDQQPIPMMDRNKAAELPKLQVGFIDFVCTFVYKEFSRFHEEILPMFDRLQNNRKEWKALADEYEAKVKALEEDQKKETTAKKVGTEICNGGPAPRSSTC
Method: PDE6 partially purified from bovine retinal rod and activated by trypsin was used. In four separate reactions, Viagra at molar concentrations of 0.3 μM, 1.0 μM, and 3.0 μM, and a 100 μM racemic mixture of flosequinan were incubated with 0.2 μg/ml active PDE6 and 100 μM cGMP containing 0.1 μM [^3H]cGMP in Tris buffer pH 7.5 for 20 minutes at 30° C. Each reaction was terminated by raising the temperature to 100° C. for 2 minutes. The resulting GMP was converted to guanosine by addition of 10 mg/ml snake venom nucleotidase and further incubated at 30° C. for 10 minutes. Unhydrolyzed cGMP was bound to AGI-X2 resin, and [^3H]guanosine remaining in the aqueous phase was quantitated by scintillation counting.

[2] = biological target: T2, PDE1 partially purified from bovine heart (Bos taurus, UniProt P14100); test: PDE1 enzyme inhibition assay (Example 3); assay type: biochemical
T2 construct: PDE1 partially purified from bovine heart was used; from tissue; host or cells: bovine heart
Method: (§1) In this example, a racemic mixture of flosequinan and the (+) and (−) enantiomers of flosequinan were subjected to biochemical enzyme assays to determine their respective percent inhibition of a variety of phosphodiesterases (PDE1-PDE6). The reaction conditions for each PDE assay were as follows.
(§2) PDE1: PDE1 partially purified from bovine heart was used. A racemic mixture of flosequinan, and each enantiomer of flosequinan, all at a molar concentration of 100 μM, were independently incubated with 13 μg PDE1 enzyme, 1.0 μM [^3H]cAMP and CaCl2/calmodulin in Tris buffer pH 7.5 for 20 minutes at 30° C. The reaction was terminated by boiling for 2 minutes, and the resulting AMP was converted to adenosine by addition of 10 mg/ml snake venom nucleotidase and further incubation at 30° C. for 10 minutes. Unhydrolyzed cAMP was bound to AGI-X2 resin, and the remaining [^3H]adenosine in the aqueous phase was quantitated by scintillation counting.

[3] = biological target: T3, PDE2 partially purified from human platelets (Homo sapiens, UniProt O00408); test: PDE2 enzyme inhibition assay (Example 3); assay type: biochemical; conditions: for % Inhibition of PDE2: 100 μM
T3 construct: PDE2 partially purified from human platelets was used; from tissue; host or cells: human platelets
Method: as §1
as §2, with “PDE2: PDE2” for “PDE1: PDE1”, “human platelets” for “bovine heart”, “23” for “13”, “PDE2” for “PDE1”, “25 μM cAMP containing 0.05” for “1.0”, “[^3H]cAMP” for “[^3H]cAMP and CaCl2/calmodulin”

[4] = biological target: T4, PDE3 partially purified from human platelets (Homo sapiens, UniProt Q14432); test: PDE3 enzyme inhibition assay (Example 3); assay type: biochemical
T4 construct: PDE3 partially purified from human platelets was used; from tissue; host or cells: human platelets
Method: as §1
as §2, with “PDE3: PDE3” for “PDE1: PDE1”, “human platelets” for “bovine heart”, “PDE3 enzyme and 1 μM cAMP containing 0.01” for “PDE1 enzyme, 1.0”, “[^3H]cAMP” for “[^3H]cAMP and CaCl2/calmodulin”

[5] = test system: PDE4 partially purified from human U-937 pronocytic cells; test: PDE4 enzyme inhibition assay (Example 3); assay type: biochemical; conditions: 100 μM
Method: as §1
as §2, with “PDE4: PDE4” for “PDE1: PDE1”, “human U-937 pronocytic cells” for “bovine heart”, “20” for “13”, “PDE4 enzyme and 1 μM cAMP containing 0.01” for “PDE1 enzyme, 1.0”, “[^3H]cAMP” for “[^3H]cAMP and CaCl2/calmodulin”

[6] = biological target: T5, PDE5 partially purified from human platelets (Homo sapiens, UniProt O76074); test: PDE5 enzyme inhibition assay (Example 3); assay type: biochemical; conditions: for % Inhibition of PDE5: 100 μM
T5 construct: PDE5 partially purified from human platelets was used; from tissue; host or cells: human platelets
Method: as §1
PDE5: PDE5 partially purified from human platelets was used. A racemic mixture of flosequinan, and each enantiomer of flosequinan, all at a molar concentration of 100 μM, were independently incubated with 120 μg PDE5 enzyme and 1 μM cGMP containing 0.01 μM [^3H]cGMP in Tris buffer pH 7.5 for 20 minutes at 30° C. The reaction was terminated by boiling for 2 minutes, and the resulting GMP was converted to guanosine by addition of 10 mg/ml snake venom nucleotidase and further incubation at 30° C. for 10 minutes. Unhydrolyzed cGMP was bound to AGI-X2 resin, and the remaining [^3H]guanosine in the aqueous phase was quantitated by scintillation counting.

[7] = biological target: T1, PDE6 partially purified from bovine retinal rod; test: PDE6 enzyme inhibition assay (Example 3); assay type: biochemical; conditions: for % Inhibition of PDE6: 100 μM
Method: as §1
PDE6: PDE6 partially purified from bovine retinal rod and activated by trypsin was used. A racemic mixture of flosequinan, and each enantiomer of flosequinan, all at a molar concentration of 100 μM, were independently incubated with 0.2 μg/ml active PDE6 and 100 μM cGMP containing 0.1 μM [^3H]cGMP in Tris buffer pH 7.5 for 20 minutes at 30° C. Each reaction was terminated by boiling for 2 minutes. The resulting GMP was converted to guanosine by addition of 10 mg/ml snake venom nucleotidase, and further incubated at 30° C. for 10 minutes. Unhydrolyzed cGMP was bound to AGI-X2 resin, and [^3H]guanosine remaining in the aqueous phase was quantitated by scintillation counting.

[8] = in vivo, po
[9] = Plasma levels following oral administration

T2 sequence (P14100 1-514 isoform P14100-2): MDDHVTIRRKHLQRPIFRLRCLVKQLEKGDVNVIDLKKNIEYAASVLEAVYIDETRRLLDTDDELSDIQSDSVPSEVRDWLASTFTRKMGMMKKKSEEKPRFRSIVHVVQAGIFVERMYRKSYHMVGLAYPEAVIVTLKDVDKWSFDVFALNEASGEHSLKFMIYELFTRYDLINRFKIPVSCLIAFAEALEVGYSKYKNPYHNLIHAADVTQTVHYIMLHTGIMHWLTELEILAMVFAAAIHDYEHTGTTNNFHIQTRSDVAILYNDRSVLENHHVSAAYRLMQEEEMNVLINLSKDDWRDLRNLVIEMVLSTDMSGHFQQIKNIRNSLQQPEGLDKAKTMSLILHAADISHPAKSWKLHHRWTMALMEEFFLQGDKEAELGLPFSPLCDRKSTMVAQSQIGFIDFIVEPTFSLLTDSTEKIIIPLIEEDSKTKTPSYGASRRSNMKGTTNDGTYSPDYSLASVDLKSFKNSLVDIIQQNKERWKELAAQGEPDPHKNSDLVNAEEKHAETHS
T4 sequence (Q14432 whole entry): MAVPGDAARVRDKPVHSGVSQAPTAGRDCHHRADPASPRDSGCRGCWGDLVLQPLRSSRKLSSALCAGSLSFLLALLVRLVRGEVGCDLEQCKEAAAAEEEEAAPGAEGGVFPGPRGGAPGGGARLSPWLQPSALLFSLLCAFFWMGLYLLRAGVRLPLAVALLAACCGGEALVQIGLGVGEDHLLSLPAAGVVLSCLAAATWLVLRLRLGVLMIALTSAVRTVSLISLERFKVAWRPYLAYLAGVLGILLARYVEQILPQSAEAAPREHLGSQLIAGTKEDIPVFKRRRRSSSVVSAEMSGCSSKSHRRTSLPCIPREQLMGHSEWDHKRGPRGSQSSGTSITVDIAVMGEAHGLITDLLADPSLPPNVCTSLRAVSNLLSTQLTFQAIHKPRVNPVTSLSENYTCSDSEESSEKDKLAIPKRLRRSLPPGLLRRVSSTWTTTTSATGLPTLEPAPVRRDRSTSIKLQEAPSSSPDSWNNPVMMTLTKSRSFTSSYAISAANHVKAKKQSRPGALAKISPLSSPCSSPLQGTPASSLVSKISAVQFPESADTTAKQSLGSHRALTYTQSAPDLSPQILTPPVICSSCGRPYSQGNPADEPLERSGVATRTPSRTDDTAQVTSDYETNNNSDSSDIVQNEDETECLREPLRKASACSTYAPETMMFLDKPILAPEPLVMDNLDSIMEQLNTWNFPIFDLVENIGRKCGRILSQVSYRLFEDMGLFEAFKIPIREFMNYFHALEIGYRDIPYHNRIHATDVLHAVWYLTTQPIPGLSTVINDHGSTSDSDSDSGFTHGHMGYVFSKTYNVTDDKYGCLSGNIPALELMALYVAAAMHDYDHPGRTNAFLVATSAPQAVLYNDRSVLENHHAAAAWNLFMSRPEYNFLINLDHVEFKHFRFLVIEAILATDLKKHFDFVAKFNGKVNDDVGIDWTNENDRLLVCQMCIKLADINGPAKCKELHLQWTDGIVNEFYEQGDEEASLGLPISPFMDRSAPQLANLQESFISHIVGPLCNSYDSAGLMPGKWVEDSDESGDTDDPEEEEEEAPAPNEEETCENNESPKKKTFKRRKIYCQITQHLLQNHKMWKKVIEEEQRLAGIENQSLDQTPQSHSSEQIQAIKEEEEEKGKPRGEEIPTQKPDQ
T3 sequence (O00408 whole entry): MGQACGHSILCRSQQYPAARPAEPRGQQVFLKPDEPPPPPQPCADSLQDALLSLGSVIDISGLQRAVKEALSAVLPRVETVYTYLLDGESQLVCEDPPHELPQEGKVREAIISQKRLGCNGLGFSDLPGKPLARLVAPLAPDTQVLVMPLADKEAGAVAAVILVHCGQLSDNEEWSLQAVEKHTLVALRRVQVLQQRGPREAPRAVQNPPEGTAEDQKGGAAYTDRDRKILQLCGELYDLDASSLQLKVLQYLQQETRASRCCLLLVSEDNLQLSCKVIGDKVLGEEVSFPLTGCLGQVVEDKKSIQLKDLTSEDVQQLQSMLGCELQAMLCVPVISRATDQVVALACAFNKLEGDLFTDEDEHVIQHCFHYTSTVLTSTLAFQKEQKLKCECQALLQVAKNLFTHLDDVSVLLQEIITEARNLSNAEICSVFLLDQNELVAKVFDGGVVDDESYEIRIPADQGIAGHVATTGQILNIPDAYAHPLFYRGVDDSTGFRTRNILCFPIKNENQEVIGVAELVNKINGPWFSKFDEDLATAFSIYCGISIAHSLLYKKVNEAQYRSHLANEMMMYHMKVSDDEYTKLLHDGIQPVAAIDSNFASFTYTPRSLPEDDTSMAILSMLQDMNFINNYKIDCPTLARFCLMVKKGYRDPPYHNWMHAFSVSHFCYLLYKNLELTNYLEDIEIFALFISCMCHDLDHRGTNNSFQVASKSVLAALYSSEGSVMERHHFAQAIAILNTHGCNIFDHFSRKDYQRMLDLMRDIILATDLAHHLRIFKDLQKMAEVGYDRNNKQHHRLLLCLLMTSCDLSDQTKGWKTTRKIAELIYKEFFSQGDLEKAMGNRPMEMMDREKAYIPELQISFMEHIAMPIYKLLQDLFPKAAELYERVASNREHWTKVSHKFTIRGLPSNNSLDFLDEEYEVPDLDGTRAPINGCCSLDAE

SMILES: CCCc1nn(C)c2c(=O)[nH]c(-c3cc(S(=O)(=O)N4CCN(C)CC4)ccc3OCC)nc12 [Viagra, Sildenafil citrate]
- inhibition at 0.3 µM ([1]; read-out: % Inhibition of PDE6, 0.3 μM compound): ~50%
- inhibition at 1 µM ([1]; read-out: % Inhibition of PDE6, 1.0 μM compound): 62%
- inhibition at 3 µM ([1]; read-out: % Inhibition of PDE6, 3.0 μM compound): 87%

SMILES: Cn1cc([S@@+](C)[O-])c(=O)c2ccc(F)cc21 [(+)-flosequinan]
- % Inhibition of PDE1 ([2]; 100 μM): 28%
- PDE1 inhibitory activity compared with the (−) enantiomer ([2]; 100 μM): more PDE1 and PDE3 inhibitory activity
- % Inhibition of PDE2 [3]: 18%
- % Inhibition of PDE3 ([4]; 100 μM): 32%
- PDE3 inhibitory activity compared with the (−) enantiomer ([4]; 100 μM): more PDE1 and PDE3 inhibitory activity
- Increase in PDE3 inhibition compared to the (−) enantiomer ([4]; same molar concentration): eight-fold
- PDE3 inhibition compared with racemic mixture of flosequinan ([4]; same molar concentration): greater inhibition of PDE3 than a racemic mixture of flosequinan
- % Inhibition of PDE4 [5]: 6%
- % Inhibition of PDE5 [6]: 17%
- % Inhibition of PDE6 [7]: 22%
- Time of peak plasma concentration [8]: 1 to 2 h

SMILES: CSc1cn(C)c2cc(F)ccc2c1=O [metabolite]
- Time of peak plasma concentration [9]: about seven

SMILES: Cn1cc([S+](C)[O-])c(=O)c2ccc(F)cc21 (racemic) [Flosequinan, 7-fluoro-1-methyl-3-(methylsulphinyl)-4(1H)-quinolone, reference compound]
- inhibition at 100 µM ([1]; 100 μM compound): 36%
- IC50 ([1]; read-out: Concentration required for around 50% inhibition of PDE6): > 100 µM
- Times more compound on a molar basis than Viagra needed for around 50% PDE6 inhibition ([1]; versus Viagra 0.3 μM): more than 300 times
- inhibition at 100 µM [2]: 31%
- inhibition at 100 µM [3]: 18%
- inhibition at 100 µM ([4]; 100 μM): 26%
- % Inhibition of PDE4 [5]: 24%
- inhibition at 100 µM [6]: 11%
- inhibition at 100 µM [7]: 21%

SMILES: Cn1cc([S+](C)[O-])c(=O)c2ccc(F)cc21 (single isomer, unassigned; (-)) [(−)-flosequinan]
- % Inhibition of PDE1 ([2]; 100 μM): 11%
- % Inhibition of PDE2 [3]: 13%
- % Inhibition of PDE3 ([4]; 100 μM): 5%
- % Inhibition of PDE4 [5]: 1%
- % Inhibition of PDE5 [6]: 10%
- % Inhibition of PDE6 [7]: 21%
